Results reported in patent US7247621B2, “Antiviral phosphonate compounds and methods therefor” (Valeant Research & Development, priority 2002, dated 2007).

Experiments:
E. coli RNA polymerase = E. coli RNA polymerase (Escherichia coli, UniProt P0A8T7+P0A8V2); conditions: Savochkina et al. Mol. Biol. (Mosk) 1989; cited from earlier work
[1] = target: HCV RNA dependent RNA polymerase (RdRp), NS5B (Hepatitis C virus genotype 1b, UniProt P26663); assay: Incorporation of phosphonate ATP analogs into RNA product by HCV RdRp (gel, extension of [33P]GpC); type: biochemical; conditions: for extension of [33P]GpC by HCV RdRp (incorporation into RNA product): 1 mM nucleotide, 10 μM [33P]GpC, 10 μM 5′-AAAAAAAUGC-3′ template, 2.5 μM HCV RdRp, FIG. 8
Method: Among other nucleotide analogs (data not shown), two exemplary phosphonate analogs of ATP, 5′-deoxy-5′-phosphonate (5′d-ATP) and 5′-deoxy-5′-methylene phosphonate (5′d-CH2-ATP), were tested for inhibition and/or incorporation into an RNA product by the HCV RNA dependent RNA polymerase (RdRp). The incorporation reactions included 1 mM of the phosphonate analog or ATP, 10 μM of [^33P]GpC, 10 μM of 5′-AAAAAAAUGC-3′, and 2.5 μM of HCV RdRp in a buffer that contained 50 mM Hepes, pH 7.3, 10 mM DTT, and 5 mM MgCl2. The RNA products were resolved on a 25% polyacrylamide-7M urea-TBE gel. […] The incorporation of 5′d-CH2-ATP is less efficient than that of ATP by 10-fold. To look for further elongation after incorporation of ATP or 5′d-CH2-ATP, the same experiment was performed in the presence of additional UTP (1 mM).
Exemplary results of such tests are depicted in the autoradiograph of FIG. 8 showing RNA products from incorporations of ATP and phosphonate analogs of ATP by HCV RdRp. Each reaction contained 2.5 μM of RdRp, 10 μM of [^33P]GpC, 10 μM template, and the following nucleotides (1 mM): lane 1, none; lane 2, ATP; lane 3,5′-deoxy-5′-phosphonate ATP; lane 4,5′-deoxy-5′-methylene phosphonate ATP; lane 5, ATP and UTP; lane 6,5′-deoxy-5′-phosphonate ATP and UTP; lane 7,5′-deoxy-5′-methylene phosphonate ATP and UTP. The reaction products were resolved on a 25% polyacrylamide-7 M urea-TBE gel and the gel was scanned on a PhosporImager.

Chain of HCV RNA dependent RNA polymerase (RdRp), NS5B (P26663 2420-3010): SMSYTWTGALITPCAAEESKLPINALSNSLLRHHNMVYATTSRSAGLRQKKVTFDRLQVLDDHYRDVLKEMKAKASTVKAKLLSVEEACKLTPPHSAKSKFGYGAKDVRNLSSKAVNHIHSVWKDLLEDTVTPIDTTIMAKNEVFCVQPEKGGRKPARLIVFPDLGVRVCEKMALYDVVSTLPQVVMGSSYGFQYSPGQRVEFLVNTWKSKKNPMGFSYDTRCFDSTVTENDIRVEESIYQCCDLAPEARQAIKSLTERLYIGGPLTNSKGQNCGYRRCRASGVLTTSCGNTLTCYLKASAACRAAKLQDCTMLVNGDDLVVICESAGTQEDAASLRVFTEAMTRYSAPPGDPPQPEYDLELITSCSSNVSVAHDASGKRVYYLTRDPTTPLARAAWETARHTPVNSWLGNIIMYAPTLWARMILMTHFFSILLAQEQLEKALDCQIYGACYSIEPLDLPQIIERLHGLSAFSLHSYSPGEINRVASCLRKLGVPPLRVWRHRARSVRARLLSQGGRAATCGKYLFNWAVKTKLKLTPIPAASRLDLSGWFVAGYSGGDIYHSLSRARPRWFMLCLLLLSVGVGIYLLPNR
Chain of E. coli RNA polymerase (P0A8T7 whole entry): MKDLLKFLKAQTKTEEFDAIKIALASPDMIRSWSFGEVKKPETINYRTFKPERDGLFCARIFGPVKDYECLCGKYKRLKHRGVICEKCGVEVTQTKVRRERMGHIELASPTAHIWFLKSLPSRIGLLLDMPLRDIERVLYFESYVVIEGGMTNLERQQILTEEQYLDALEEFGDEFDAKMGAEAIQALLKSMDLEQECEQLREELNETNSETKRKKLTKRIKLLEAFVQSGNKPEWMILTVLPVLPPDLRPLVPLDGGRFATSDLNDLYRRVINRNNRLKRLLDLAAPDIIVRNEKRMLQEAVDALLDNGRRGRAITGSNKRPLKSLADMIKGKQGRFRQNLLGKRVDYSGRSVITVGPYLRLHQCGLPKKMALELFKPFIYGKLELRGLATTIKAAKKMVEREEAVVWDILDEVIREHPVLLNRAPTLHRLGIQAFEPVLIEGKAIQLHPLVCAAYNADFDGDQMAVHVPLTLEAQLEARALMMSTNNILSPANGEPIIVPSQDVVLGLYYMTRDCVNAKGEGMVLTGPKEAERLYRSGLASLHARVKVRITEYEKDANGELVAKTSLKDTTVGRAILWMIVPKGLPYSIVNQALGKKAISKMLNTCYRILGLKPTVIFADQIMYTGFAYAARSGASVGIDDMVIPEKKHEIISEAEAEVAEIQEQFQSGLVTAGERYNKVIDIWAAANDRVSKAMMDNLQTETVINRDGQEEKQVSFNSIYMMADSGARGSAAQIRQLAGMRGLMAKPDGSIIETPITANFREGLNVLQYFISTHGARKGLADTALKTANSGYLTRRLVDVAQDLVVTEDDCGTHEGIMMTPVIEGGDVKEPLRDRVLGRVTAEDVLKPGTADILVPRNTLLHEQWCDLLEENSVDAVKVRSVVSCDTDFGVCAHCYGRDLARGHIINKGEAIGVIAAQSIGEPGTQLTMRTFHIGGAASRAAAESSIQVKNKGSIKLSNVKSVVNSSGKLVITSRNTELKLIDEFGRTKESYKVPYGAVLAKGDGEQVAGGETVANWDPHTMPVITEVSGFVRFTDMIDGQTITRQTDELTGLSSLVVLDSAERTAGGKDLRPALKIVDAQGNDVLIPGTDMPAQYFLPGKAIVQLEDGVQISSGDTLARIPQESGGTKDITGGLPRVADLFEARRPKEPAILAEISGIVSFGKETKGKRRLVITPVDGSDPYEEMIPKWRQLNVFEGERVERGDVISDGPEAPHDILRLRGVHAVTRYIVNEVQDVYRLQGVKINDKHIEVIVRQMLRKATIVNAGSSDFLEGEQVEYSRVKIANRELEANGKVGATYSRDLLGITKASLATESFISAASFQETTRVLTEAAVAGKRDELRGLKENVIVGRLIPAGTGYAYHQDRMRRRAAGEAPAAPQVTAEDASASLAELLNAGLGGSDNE
Chain of E. coli RNA polymerase (P0A8V2 whole entry): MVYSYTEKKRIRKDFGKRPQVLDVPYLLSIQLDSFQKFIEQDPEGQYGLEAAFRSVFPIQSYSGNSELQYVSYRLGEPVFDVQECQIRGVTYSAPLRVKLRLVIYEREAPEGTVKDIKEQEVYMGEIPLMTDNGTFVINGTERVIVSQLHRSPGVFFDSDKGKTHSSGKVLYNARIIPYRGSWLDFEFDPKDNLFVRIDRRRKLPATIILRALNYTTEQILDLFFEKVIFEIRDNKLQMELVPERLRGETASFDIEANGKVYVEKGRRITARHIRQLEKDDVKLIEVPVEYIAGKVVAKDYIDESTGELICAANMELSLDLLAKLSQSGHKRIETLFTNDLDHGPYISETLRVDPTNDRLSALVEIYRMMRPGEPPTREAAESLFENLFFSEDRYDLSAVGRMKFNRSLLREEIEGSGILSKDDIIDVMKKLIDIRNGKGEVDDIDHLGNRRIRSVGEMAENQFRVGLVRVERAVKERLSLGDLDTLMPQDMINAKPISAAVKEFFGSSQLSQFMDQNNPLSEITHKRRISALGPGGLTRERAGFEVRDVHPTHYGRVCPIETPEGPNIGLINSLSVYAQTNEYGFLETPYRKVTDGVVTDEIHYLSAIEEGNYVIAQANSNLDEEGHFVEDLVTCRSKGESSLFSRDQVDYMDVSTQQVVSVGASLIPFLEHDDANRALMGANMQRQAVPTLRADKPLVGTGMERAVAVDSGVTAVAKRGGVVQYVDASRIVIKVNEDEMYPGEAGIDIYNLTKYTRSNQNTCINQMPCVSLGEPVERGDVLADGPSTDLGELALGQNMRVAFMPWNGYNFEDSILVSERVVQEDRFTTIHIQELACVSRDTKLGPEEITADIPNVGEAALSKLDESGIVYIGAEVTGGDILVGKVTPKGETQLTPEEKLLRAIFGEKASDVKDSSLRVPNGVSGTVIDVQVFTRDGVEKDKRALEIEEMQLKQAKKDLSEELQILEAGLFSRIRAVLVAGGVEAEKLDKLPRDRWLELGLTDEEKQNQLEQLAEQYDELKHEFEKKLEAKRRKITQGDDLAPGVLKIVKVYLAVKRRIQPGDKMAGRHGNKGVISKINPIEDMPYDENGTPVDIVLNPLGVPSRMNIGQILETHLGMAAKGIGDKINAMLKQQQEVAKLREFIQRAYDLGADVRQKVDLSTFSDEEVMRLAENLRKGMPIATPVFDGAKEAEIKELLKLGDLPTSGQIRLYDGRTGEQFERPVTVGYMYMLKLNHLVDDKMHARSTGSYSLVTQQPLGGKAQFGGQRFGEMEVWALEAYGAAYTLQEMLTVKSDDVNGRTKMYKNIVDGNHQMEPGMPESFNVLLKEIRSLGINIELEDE
Chain of E. coli RNA polymerase (P0A7Z4 whole entry, further chain): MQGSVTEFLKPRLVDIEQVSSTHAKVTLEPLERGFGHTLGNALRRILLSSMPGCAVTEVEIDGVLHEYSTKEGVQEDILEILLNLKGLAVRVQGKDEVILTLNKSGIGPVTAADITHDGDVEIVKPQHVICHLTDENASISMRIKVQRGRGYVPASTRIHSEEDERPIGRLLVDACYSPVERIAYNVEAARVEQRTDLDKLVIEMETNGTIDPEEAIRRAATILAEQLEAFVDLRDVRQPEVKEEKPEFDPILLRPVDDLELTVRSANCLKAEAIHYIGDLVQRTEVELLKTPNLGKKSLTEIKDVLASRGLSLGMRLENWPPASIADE
Chain of E. coli RNA polymerase (P0A800 whole entry, further chain): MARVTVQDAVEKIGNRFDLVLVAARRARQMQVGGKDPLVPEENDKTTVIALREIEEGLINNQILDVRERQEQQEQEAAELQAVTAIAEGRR

In the case of O=c1ccn([C@@H]2O[C@@H](CP(=O)(O)OP(=O)(O)OP(=O)(O)O)[C@@H](O)[C@H]2O)c(=O)[nH]1 [Phosphonate (5-deoxy) UTP], the “effect on RNA synthesis by E. coli RNA polymerase” value (E. coli RNA polymerase) is listed as “pseudoterminator of RNA synthesis”.
For Nc1ncnc2c1ncn2[C@@H]1O[C@H](COP(=O)(O)OP(=O)(O)OP(=O)(O)O)[C@@H](O)[C@H]1O [ATP], the “extension of [33P]GpC by HCV RdRp (incorporation into RNA product)” value [1] was “extension of [^33P]GpC by HCV RdRp was observed” and the “further elongation by UTP after incorporation” value ([1]; same experiment with additional UTP (1 mM)) was “Elongation products by UTP were seen”.
With Nc1ncnc2c1ncn2[C@@H]1O[C@H](CP(=O)(O)OP(=O)(O)OP(=O)(O)O)[C@@H](O)[C@H]1O [5′d-ATP] the “extension of [33P]GpC by HCV RdRp (incorporation into RNA product)” value [1] was “no extension”.
